# Results: PubChem BioAssay (NCI)
#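 Growth conditions: 96-well plates. Treatment: test compound, 48 hours, 5 concentrations. Analysis: linear interpolation between bracketing concentrations; unreached endpoints set to highest concentration. Definition used: TGI = concentration required for complete inhibition of growth.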
# Experiments:
# Test in all cases: inhibition of tumour cell growth, NCI panel, 48 h
# M19-MEL melanoma = test system: M19-MEL melanoma
# MALME-3M melanoma = test system: MALME-3M melanoma
# HCT-116 colon = test system: HCT-116 colon
# SNB-75 CNS = test system: SNB-75 CNS
# HCC-2998 colon = test system: HCC-2998 colon
# OVCAR-4 ovarian = test system: OVCAR-4 ovarian
# OVCAR-3 ovarian = test system: OVCAR-3 ovarian
# 786-0 renal = test system: 786-0 renal
# SF-268 CNS = test system: SF-268 CNS
# SW-620 colon = test system: SW-620 colon
# OVCAR-8 ovarian = test system: OVCAR-8 ovarian
# HOP-92 NSCLC = test system: HOP-92 NSCLC
# SNB-78 CNS = test system: SNB-78 CNS
# HOP-62 NSCLC = test system: HOP-62 NSCLC
# SK-MEL-5 melanoma = test system: SK-MEL-5 melanoma
# LXFL 529 NSCLC = test system: LXFL 529 NSCLC
# SK-OV-3 ovarian = test system: SK-OV-3 ovarian
# IGROV1 ovarian = test system: IGROV1 ovarian
# SK-MEL-28 melanoma = test system: SK-MEL-28 melanoma
# EKVX NSCLC = test system: EKVX NSCLC
# NCI-H23 lung = test system: NCI-H23 lung
# NCI-H522 lung = test system: NCI-H522 lung
# DMS 114 small cell lung = test system: DMS 114 small cell lung
# HL-60(TB) leukemia = test system: HL-60(TB) leukemia
# SF-295 CNS = test system: SF-295 CNS
# UACC-62 melanoma = test system: UACC-62 melanoma
# SN12C renal = test system: SN12C renal
# DLD-1 colon = test system: DLD-1 colon
# NCI-H226 lung = test system: NCI-H226 lung
# CAKI-1 renal = test system: CAKI-1 renal
# U251 CNS = test system: U251 CNS
# TK-10 renal = test system: TK-10 renal
# DMS 273 small cell lung = test system: DMS 273 small cell lung
# RPMI-8226 leukemia = test system: RPMI-8226 leukemia
# A549 NSCLC = test system: A549 NSCLC
# HT29 colon = test system: HT29 colon
# SK-MEL-2 melanoma = test system: SK-MEL-2 melanoma
# SNB-19 CNS = test system: SNB-19 CNS
# CCRF-CEM leukemia = test system: CCRF-CEM leukemia
# SR leukemia = test system: SR leukemia
# M14 melanoma = test system: M14 melanoma
# XF 498 CNS = test system: XF 498 CNS
# ACHN renal = test system: ACHN renal
# OVCAR-5 ovarian = test system: OVCAR-5 ovarian
# KM20L2 colon = test system: KM20L2 colon
# HCT-15 colon = test system: HCT-15 colon
# NCI-H460 lung = test system: NCI-H460 lung
# KM12 colon = test system: KM12 colon
# UO-31 renal = test system: UO-31 renal
# COLO 205 colon = test system: COLO 205 colon
# K-562 leukemia = test system: K-562 leukemia
# RXF 393 renal = test system: RXF 393 renal
# SF-539 CNS = test system: SF-539 CNS
# NCI/ADR-RES ovarian = test system: NCI/ADR-RES ovarian
# BT-549 breast = test system: BT-549 breast
# MCF7 breast = test system: MCF7 breast
# MDA-MB-231 breast = test system: MDA-MB-231 breast
# MDA-MB-435 = test system: MDA-MB-435
# UACC-257 melanoma = test system: UACC-257 melanoma
# A498 renal = test system: A498 renal
# DU-145 prostate = test system: DU-145 prostate
# LOX IMVI melanoma = test system: LOX IMVI melanoma
# PC-3 prostate = test system: PC-3 prostate
# MDA-N = test system: MDA-N
# HS 578T breast = test system: HS 578T breast
# T-47D breast = test system: T-47D breast
# MOLT-4 leukemia = test system: MOLT-4 leukemia
structure (smiles),measurement,setting,value
COc1ccc(C(O)C(c2ccc(OCc3ccccc3)cc2)c2ccc(OCc3ccccc3)cc2)cc1 (configuration not stated),TGI,M19-MEL melanoma,> 100 µM
same,TGI,MALME-3M melanoma,> 100 µM
same,TGI,HCT-116 colon,> 100 µM
same,TGI,SNB-75 CNS,> 100 µM
same,TGI,HCC-2998 colon,> 100 µM
same,TGI,OVCAR-4 ovarian,> 100 µM
same,TGI,OVCAR-3 ovarian,> 100 µM
same,TGI,786-0 renal,> 100 µM
same,TGI,SF-268 CNS,> 100 µM
same,TGI,SW-620 colon,> 100 µM
same,TGI,OVCAR-8 ovarian,> 100 µM
same,TGI,HOP-92 NSCLC,> 100 µM
same,TGI,SNB-78 CNS,> 100 µM
same,TGI,HOP-62 NSCLC,> 100 µM
same,TGI,SK-MEL-5 melanoma,> 100 µM
same,TGI,LXFL 529 NSCLC,> 100 µM
same,TGI,SK-OV-3 ovarian,> 100 µM
same,TGI,IGROV1 ovarian,> 100 µM
same,TGI,SK-MEL-28 melanoma,> 100 µM
same,TGI,EKVX NSCLC,> 100 µM
same,TGI,NCI-H23 lung,> 100 µM
same,TGI,NCI-H522 lung,> 100 µM
same,TGI,DMS 114 small cell lung,> 100 µM
same,TGI,HL-60(TB) leukemia,> 100 µM
same,TGI,SF-295 CNS,> 100 µM
same,TGI,UACC-62 melanoma,> 100 µM
same,TGI,SN12C renal,> 100 µM
same,TGI,DLD-1 colon,> 100 µM
same,TGI,NCI-H226 lung,> 100 µM
same,TGI,CAKI-1 renal,> 100 µM
same,TGI,U251 CNS,> 100 µM
same,TGI,TK-10 renal,> 100 µM
same,TGI,DMS 273 small cell lung,> 100 µM
same,TGI,RPMI-8226 leukemia,> 100 µM
same,TGI,A549 NSCLC,> 100 µM
same,TGI,HT29 colon,> 100 µM
same,TGI,SK-MEL-2 melanoma,> 100 µM
same,TGI,SNB-19 CNS,> 100 µM
same,TGI,CCRF-CEM leukemia,> 100 µM
same,TGI,SR leukemia,> 100 µM
same,TGI,M14 melanoma,> 100 µM
same,TGI,XF 498 CNS,> 100 µM
same,TGI,ACHN renal,> 100 µM
same,TGI,OVCAR-5 ovarian,> 100 µM
same,TGI,KM20L2 colon,> 100 µM
same,TGI,HCT-15 colon,> 100 µM
same,TGI,NCI-H460 lung,> 100 µM
same,TGI,KM12 colon,> 100 µM
same,TGI,UO-31 renal,> 100 µM
same,TGI,COLO 205 colon,> 100 µM
same,TGI,K-562 leukemia,> 100 µM
same,TGI,RXF 393 renal,> 100 µM
same,TGI,SF-539 CNS,> 100 µM
N#C/C=C(/NC(=O)Nc1ccccc1)N1CCCC1,TGI,MALME-3M melanoma,> 66.9 µM
same,TGI,HCT-116 colon,> 55.5 µM
same,TGI,SNB-75 CNS,> 21.4 µM
same,TGI,HCC-2998 colon,> 53 µM
same,TGI,OVCAR-4 ovarian,> 100 µM
same,TGI,NCI/ADR-RES ovarian,> 61.5 µM
same,TGI,OVCAR-3 ovarian,> 100 µM
same,TGI,BT-549 breast,> 100 µM
same,TGI,MCF7 breast,> 55 µM
same,TGI,786-0 renal,> 100 µM
same,TGI,SF-268 CNS,> 46.4 µM
same,TGI,SW-620 colon,> 63.7 µM
same,TGI,OVCAR-8 ovarian,> 51.8 µM
same,TGI,MDA-MB-231 breast,> 100 µM
same,TGI,HOP-92 NSCLC,> 62.2 µM
same,TGI,HOP-62 NSCLC,> 35.8 µM
same,TGI,SK-MEL-5 melanoma,> 100 µM
same,TGI,SK-OV-3 ovarian,> 100 µM
same,TGI,MDA-MB-435,> 100 µM
same,TGI,IGROV1 ovarian,> 76.3 µM
same,TGI,SK-MEL-28 melanoma,> 83.3 µM
same,TGI,EKVX NSCLC,> 97 µM
same,TGI,NCI-H23 lung,> 64.7 µM
same,TGI,NCI-H522 lung,> 60.8 µM
same,TGI,UACC-257 melanoma,> 100 µM
same,TGI,HL-60(TB) leukemia,> 100 µM
same,TGI,SF-295 CNS,> 43.8 µM
same,TGI,UACC-62 melanoma,> 100 µM
same,TGI,A498 renal,> 100 µM
same,TGI,SN12C renal,> 100 µM
same,TGI,DU-145 prostate,> 85.6 µM
same,TGI,LOX IMVI melanoma,97.4 µM
same,TGI,NCI-H226 lung,> 65.9 µM
same,TGI,CAKI-1 renal,> 59.8 µM
same,TGI,U251 CNS,> 53.8 µM
same,TGI,TK-10 renal,> 55.4 µM
same,TGI,PC-3 prostate,> 54.5 µM
same,TGI,RPMI-8226 leukemia,> 100 µM
same,TGI,A549 NSCLC,> 61.3 µM
same,TGI,HT29 colon,> 100 µM
same,TGI,SK-MEL-2 melanoma,> 52.6 µM
same,TGI,MDA-N,> 100 µM
same,TGI,SNB-19 CNS,> 45.6 µM
same,TGI,CCRF-CEM leukemia,> 100 µM
same,TGI,HS 578T breast,> 100 µM
same,TGI,T-47D breast,> 100 µM
same,TGI,SR leukemia,> 100 µM
same,TGI,M14 melanoma,> 100 µM
same,TGI,ACHN renal,> 57.3 µM
same,TGI,OVCAR-5 ovarian,> 100 µM
same,TGI,HCT-15 colon,> 100 µM
same,TGI,NCI-H460 lung,> 55.4 µM
same,TGI,KM12 colon,> 100 µM
same,TGI,MOLT-4 leukemia,> 100 µM
same,TGI,UO-31 renal,> 100 µM
same,TGI,COLO 205 colon,> 100 µM
same,TGI,K-562 leukemia,> 100 µM
same,TGI,RXF 393 renal,> 100 µM
same,TGI,SF-539 CNS,> 65.7 µM
